Reference: PubChem BioAssay AID1919013 (Molecular Pharmacology Branch, DTP, NCI, 2023)

System: LG0703-F498-PDC complex spheroid growth
Test: Anticancer human tumor LG0703-F498-PDC patient-derived lung adenocarcinoma cell line growth inhibition [AhR]
Conditions: for IC50: curve of first compound; for viability, T/C: stronger effect = lower value; active means viability on the fitted dose curve at most 10% of control; inactive means the rest
In short: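 Spheroids combined tumor cells with HUVEC endothelial cells and human MSCs as stroma. AhR antagonists were paired with standard or investigational drugs, each dosed in half-log steps down from near clinical Cmax, or from 10 microM where Cmax was unknown.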

[1] = second compound 0.1 µM, first compound 0.0316 µM
[2] = second compound 0.1 µM, first compound 0.1 µM
[3] = second compound 0.1 µM, first compound 0.316 µM
[4] = second compound 0.1 µM, first compound 1 µM
[5] = second compound 0.1 µM, first compound 3.16 µM
[6] = second compound 0.1 µM, first compound 10 µM
[7] = second compound 0.316 µM, first compound 0.0316 µM
[8] = second compound 0.316 µM, first compound 0.1 µM
[9] = second compound 0.316 µM, first compound 0.316 µM
[10] = second compound 0.316 µM, first compound 1 µM
[11] = second compound 0.316 µM, first compound 3.16 µM
[12] = second compound 0.316 µM, first compound 10 µM
[13] = second compound 1 µM, first compound 0.0316 µM
[14] = second compound 1 µM, first compound 0.1 µM
[15] = second compound 1 µM, first compound 0.316 µM
[16] = second compound 1 µM, first compound 1 µM
[17] = second compound 1 µM, first compound 3.16 µM
[18] = second compound 1 µM, first compound 10 µM
[19] = second compound 3.16 µM, first compound 0.0316 µM
[20] = second compound 3.16 µM, first compound 0.1 µM
[21] = second compound 3.16 µM, first compound 0.316 µM
[22] = second compound 3.16 µM, first compound 1 µM
[23] = second compound 3.16 µM, first compound 3.16 µM
[24] = second compound 3.16 µM, first compound 10 µM
[25] = second compound 10 µM, first compound 0.0316 µM
[26] = second compound 10 µM, first compound 0.1 µM
[27] = second compound 10 µM, first compound 0.316 µM
[28] = second compound 10 µM, first compound 1 µM
[29] = second compound 10 µM, first compound 3.16 µM
[30] = second compound 10 µM, first compound 10 µM
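Further: luminescence taken as a proxy for viable cell amount.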
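Wherever viability, T/C is given: percent of DMSO vehicle control where 100% means growth equal to vehicle.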

CC1(C)CCC(CN2CCN(c3ccc(C(=O)NS(=O)(=O)c4ccc(NCC5CCOCC5)c([N+](=O)[O-])c4)c(Oc4cnc5[nH]ccc5c4)c3)CC2)=C(c2ccc(Cl)cc2)C1 + Cc1cncc(-c2nc(NCCc3c[nH]c4ccccc34)c3ncn(C(C)C)c3n2)c1
7970 nM: IC50 (second compound 1 µM)
7100 nM: IC50 (second compound 0.316 µM)
active: viability, T/C [25] 1.31% | viability, T/C [26] 1.08% | viability, T/C [27] 1.56% | viability, T/C [28] 1.25% | viability, T/C [29] 1.72% | viability, T/C [30] 4.35%
< 31.6 nM: IC50 (second compound 10 µM)
8320 nM: IC50 (second compound 0.1 µM)
inactive: viability, T/C [1] 112% | viability, T/C [2] 96.1% | viability, T/C [3] 106% | viability, T/C [4] 97% | viability, T/C [5] 87.8% | viability, T/C [6] 42.5% | viability, T/C [7] 120% | viability, T/C [8] 88% | viability, T/C [9] 101% | viability, T/C [10] 92.7% | viability, T/C [11] 88.4% | viability, T/C [12] 34.3% | viability, T/C [13] 116% | viability, T/C [14] 113% | viability, T/C [15] 95% | viability, T/C [16] 103% | viability, T/C [17] 97.7% | viability, T/C [18] 37.8% | viability, T/C [19] 48% | viability, T/C [20] 49.5% | viability, T/C [21] 54.6% | viability, T/C [22] 43.3% | viability, T/C [23] 52.1% | viability, T/C [24] 24.7%
31.6 nM: IC50 (second compound 3.16 µM)

CCN(c1cc(-c2ccc(CN3CCOCC3)cc2)cc(C(=O)NCc2c(C)cc(C)[nH]c2=O)c1C)C1CCOCC1 + Cc1cncc(-c2nc(NCCc3c[nH]c4ccccc34)c3ncn(C(C)C)c3n2)c1
active: viability, T/C (second compound 10 µM, first compound 0.00949 µM) 1.09% | viability, T/C (second compound 10 µM, first compound 0.03 µM) 1.47% | viability, T/C (second compound 10 µM, first compound 0.0949 µM) 1.79% | viability, T/C (second compound 10 µM, first compound 0.3 µM) 1.93% | viability, T/C (second compound 10 µM, first compound 0.949 µM) 0.83% | viability, T/C (second compound 10 µM, first compound 3 µM) 1.74%
< 9.49 nM: IC50 (second compound 3.16 µM) | IC50 (second compound 10 µM)
> 3000 nM: IC50 (second compound 0.1 µM) | IC50 (second compound 0.316 µM) | IC50 (second compound 1 µM)
inactive: viability, T/C (second compound 0.1 µM, first compound 0.00949 µM) 106% | viability, T/C (second compound 0.1 µM, first compound 0.03 µM) 110% | viability, T/C (second compound 0.1 µM, first compound 0.0949 µM) 106% | viability, T/C (second compound 0.1 µM, first compound 0.3 µM) 102% | viability, T/C (second compound 0.1 µM, first compound 0.949 µM) 121% | viability, T/C (second compound 0.1 µM, first compound 3 µM) 123% | viability, T/C (second compound 0.316 µM, first compound 0.00949 µM) 118% | viability, T/C (second compound 0.316 µM, first compound 0.03 µM) 104% | viability, T/C (second compound 0.316 µM, first compound 0.0949 µM) 120% | viability, T/C (second compound 0.316 µM, first compound 0.3 µM) 104% | viability, T/C (second compound 0.316 µM, first compound 0.949 µM) 106% | viability, T/C (second compound 0.316 µM, first compound 3 µM) 125% | viability, T/C (second compound 1 µM, first compound 0.00949 µM) 119% | viability, T/C (second compound 1 µM, first compound 0.03 µM) 110% | viability, T/C (second compound 1 µM, first compound 0.0949 µM) 112% | viability, T/C (second compound 1 µM, first compound 0.3 µM) 111% | viability, T/C (second compound 1 µM, first compound 0.949 µM) 109% | viability, T/C (second compound 1 µM, first compound 3 µM) 120% | viability, T/C (second compound 3.16 µM, first compound 0.00949 µM) 30.5% | viability, T/C (second compound 3.16 µM, first compound 0.03 µM) 26.3% | viability, T/C (second compound 3.16 µM, first compound 0.0949 µM) 29.8% | viability, T/C (second compound 3.16 µM, first compound 0.3 µM) 30.8% | viability, T/C (second compound 3.16 µM, first compound 0.949 µM) 27.9% | viability, T/C (second compound 3.16 µM, first compound 3 µM) 35.5%

Cn1ncnc1C1c2n[nH]c(=O)c3cc(F)cc(c23)NC1c1ccc(F)cc1 (stereo not given) + Cc1cncc(-c2nc(NCCc3c[nH]c4ccccc34)c3ncn(C(C)C)c3n2)c1
inactive: viability, T/C (second compound 0.1 µM, first compound 0.000316 µM) 101% | viability, T/C (second compound 0.1 µM, first compound 0.001 µM) 93.3% | viability, T/C (second compound 0.1 µM, first compound 0.00316 µM) 93.2% | viability, T/C (second compound 0.1 µM, first compound 0.01 µM) 93.8% | viability, T/C [1] 91.3% | viability, T/C [2] 82.6% | viability, T/C (second compound 0.316 µM, first compound 0.000316 µM) 94.6% | viability, T/C (second compound 0.316 µM, first compound 0.001 µM) 108% | viability, T/C (second compound 0.316 µM, first compound 0.00316 µM) 98.4% | viability, T/C (second compound 0.316 µM, first compound 0.01 µM) 98.5% | viability, T/C [7] 104% | viability, T/C [8] 89.1% | viability, T/C (second compound 1 µM, first compound 0.000316 µM) 103% | viability, T/C (second compound 1 µM, first compound 0.001 µM) 116% | viability, T/C (second compound 1 µM, first compound 0.00316 µM) 100% | viability, T/C (second compound 1 µM, first compound 0.01 µM) 106% | viability, T/C [13] 109% | viability, T/C [14] 95.7% | viability, T/C (second compound 3.16 µM, first compound 0.000316 µM) 49.3% | viability, T/C (second compound 3.16 µM, first compound 0.001 µM) 47% | viability, T/C (second compound 3.16 µM, first compound 0.00316 µM) 58.2% | viability, T/C (second compound 3.16 µM, first compound 0.01 µM) 42.4% | viability, T/C [19] 48% | viability, T/C [20] 54%
< 0.316 nM: IC50 (second compound 3.16 µM) | IC50 (second compound 10 µM)
> 100 nM: IC50 (second compound 0.1 µM) | IC50 (second compound 0.316 µM) | IC50 (second compound 1 µM)
active: viability, T/C (second compound 10 µM, first compound 0.000316 µM) 1.14% | viability, T/C (second compound 10 µM, first compound 0.001 µM) 1.01% | viability, T/C (second compound 10 µM, first compound 0.00316 µM) 1.11% | viability, T/C (second compound 10 µM, first compound 0.01 µM) 1.03% | viability, T/C [25] 1.15% | viability, T/C [26] 1.54%

NS(=O)(=O)OCC1CC(n2ccc3c(NC4CCc5ccccc54)ncnc32)CC1O (stereo not given) + Cc1cncc(-c2nc(NCCc3c[nH]c4ccccc34)c3ncn(C(C)C)c3n2)c1
2200 nM: IC50 (second compound 1 µM)
725 nM: IC50 (second compound 3.16 µM)
inactive: viability, T/C [1] 105% | viability, T/C [2] 113% | viability, T/C [3] 66.7% | viability, T/C [4] 101% | viability, T/C [5] 44% | viability, T/C [6] 30.7% | viability, T/C [7] 113% | viability, T/C [8] 97.3% | viability, T/C [9] 53.3% | viability, T/C [10] 97.2% | viability, T/C [11] 39.8% | viability, T/C [12] 28.9% | viability, T/C [13] 111% | viability, T/C [14] 79.7% | viability, T/C [15] 54% | viability, T/C [16] 106% | viability, T/C [17] 32.6% | viability, T/C [18] 26.2% | viability, T/C [19] 70.9% | viability, T/C [20] 70.1% | viability, T/C [21] 50% | viability, T/C [22] 55.4% | viability, T/C [23] 27.2% | viability, T/C [24] 16.9%
3930 nM: IC50 (second compound 0.1 µM)
active: viability, T/C [25] 2.35% | viability, T/C [26] 3.18% | viability, T/C [27] 6.94% | viability, T/C [28] 2.85% | viability, T/C [29] 6.79% | viability, T/C [30] 5.98%
< 31.6 nM: IC50 (second compound 10 µM)
2730 nM: IC50 (second compound 0.316 µM)
